Here are results for one sequence from article PMC3688528, “Location of the CD8 T Cell Epitope within the Antigenic Precursor Determines Immunogenicity and Protection against the Toxoplasma gondii Parasite” (PLoS Pathogens, 2013).

“And” between values parts separate entries of the source, which are not always exact repeats. Equal entries are not always repeated.

Assay [1] concerns T. gondii-specific CD8 T cells of infected B10.D2 mice. Description: Ex vivo staining of peptide-specific CD8 T cells with peptide-loaded L^d DimerX. It is filed as cell-based, mouse. The settings on record: B10.D2 mice 4 weeks post-infection; HF10 value in CEP+GRA6II-infected mice; mean +/- s.d.; 3 independent experiments pooled; SD. On the procedure:
(§1) Mice were sacrificed 3 to 4 weeks after infection. Spleens were dissociated into single-cell suspensions in complete RPMI (Invitrogen) supplemented with 10% (vol/vol) FCS (Hyclone). Samples were depleted of erythrocytes with ACK lysis buffer (100 µM EDTA, 160 mM NH4Cl and 10 mM NaHCO3). Leukocytes from the brain were prepared as in [17]. In brief, brains were minced and digested for 1 h at 37°C with 1 mg/ml collagenase (Sigma) and 100 µg/ml DNAseI (Roche) in complete RPMI. Brain suspensions were filtered through 70-µm cell strainers and centrifuged for 10 min at 200 g. Cells were resuspended in 60% (vol/vol) Percoll (GE Healthcare), overlaid on 30% (vol/vol) Percoll and centrifuged 20 min at 1,000 g. Infiltrating mononuclear cells were collected from the gradient interface and the remaining erythrocytes were lyzed with ACK lysis buffer.
(§2) For other stainings, surfaces were labeled according to standard procedures with flow cytometry buffer (3% (vol/vol) FCS and 1 mM EDTA in PBS). Intracellular IFN-γ was detected with the Cytofix/Cytoperm kit (BD Pharmingen). DimerX H-2L^d:Ig (fusion protein of H-2L^d and immunoglobulin; BD Biosciences) was used according to the manufacturer's instructions and as described in [17]. All flow cytometry data were acquired on an XL Analyzer (Coulter) or a LSRII (Becton Dickinson) and were analyzed with FlowJo software (Tree Star).

The test system of assay [2] is type II parasite. To be noted: H2^d mice immunized with HF10-loaded bone marrow-derived dendritic cells; cited from earlier work.
Assay [3] concerns CD8 T cells from spleens of T. gondii-infected B10.D2 mice. Description: Ex vivo IFN-γ intracellular staining of splenocytes restimulated in vitro with peptide. It is filed as cell-based. The settings on record: splenocytes of B10.D2 mice 3 weeks post-infection with CEP+GRA6II; one representative mouse out of 3. On the procedure:
as §1, §2

For assay [4], the target named is T1, L^d MHC I molecule (Mus musculus, UniProt P01897).
T1 construct: expressed in transfected cells; host or cells: RMA-S.L^d cells (TAP-deficient), gift from T. Hansen
T1 sequence (P01897 25-362): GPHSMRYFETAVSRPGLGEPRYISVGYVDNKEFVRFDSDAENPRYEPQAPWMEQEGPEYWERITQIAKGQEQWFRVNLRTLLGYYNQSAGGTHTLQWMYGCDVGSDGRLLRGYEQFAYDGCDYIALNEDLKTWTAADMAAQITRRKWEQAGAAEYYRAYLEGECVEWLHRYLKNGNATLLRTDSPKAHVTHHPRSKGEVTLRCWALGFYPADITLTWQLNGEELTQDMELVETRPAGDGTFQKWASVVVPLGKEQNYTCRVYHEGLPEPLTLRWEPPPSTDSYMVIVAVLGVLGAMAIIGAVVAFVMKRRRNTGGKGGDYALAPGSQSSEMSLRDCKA
T1 sequence (P01887 21-119 partner): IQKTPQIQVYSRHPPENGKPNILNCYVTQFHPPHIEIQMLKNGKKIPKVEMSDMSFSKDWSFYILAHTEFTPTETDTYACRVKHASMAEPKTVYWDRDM
Kind of assay: MHC I stabilization assay on TAP-deficient RMA-S.L^d cells. It is filed as binding. To be noted: flow cytometry MFI. The source says: We took advantage of the genetic diversity among three common T. gondii strains (type I, II and III). While the GRA4-derived SM9 and ROP7-derived IF9 peptides are conserved (data not shown and ToxoDB.org), the GRA6-derived HF10 peptide is polymorphic between type II and type I/III strains. Within the last 10 residues of GRA6, four non-synonymous single-nucleotide polymorphisms differentiate the type II sequence (HF10: HPGSVNEFDF) from the type I/III sequence (HY10: HPERVNVFDY) (Fig. 1A and Fig. S1 in Text S1). We noted that instead of a phenylalanine (F), the C-terminal residue in GRA6III is a tyrosine (Y), a residue not expected to be an appropriate anchor residue for L^d binding. To evaluate the ability of HF10 and HY10 to bind to L^d, we used an MHC I stabilization assay. TAP-deficient RMA-S cells display empty, unstable MHC I molecules and addition of exogenous peptides that can bind to MHC I can stabilize their expression on the cell surface, as read out by flow cytometry.
RMA-S.L^d cells were a gift from T. Hansen (St-Louis, MO, USA). RMA-S.L^d cells were incubated at 37°C, 5% CO2 for 8 h to saturate the culture medium with CO2. The flask was sealed with parafilm and incubated at RT overnight. The next day, cells were washed with PBS and plated at 3×10^5 cells/well in a 96-W plate. Peptide was added to the cells in serial dilutions. The plate was incubated for 1 h at RT and 3 h at 37°C. Cells were stained with the 30-5-7 antibody (specific for conformed, peptide-bound L^d) and a phycoerythrine (PE)-coupled goat anti-mouse secondary antibody and analyzed by flow cytometry.
(In general: In flow cytometry, cells or beads pass a laser one at a time.)

For assay [5], the system named is naïve T. gondii-specific CD8α+ T cells in naive B10.D2 mice. Kind of assay: Naïve T cell enumeration by tetramer-based enrichment and flow cytometry. Details: species or system mouse. On the procedure: We next assessed whether abundance of peptide-specific T cells in the repertoire of naïve mice may control immunodominance. We employed a tetramer-based enrichment procedure, [24] to enumerate naïve T cells isolated from spleen and lymph nodes of uninfected mice and specific for each of the 3 epitopes. Numbers of T cell precursors were analyzed by flow cytometry after gating on a population of live dump^− (dump = B220, F4/80, MHC II) CD3^+ CD8α^+ cells (Fig. S4 in Text S1). […] Thus the immunodominance of HF10 cannot be explained by a high starting precursor frequency of specific T cells.
Spleen and major lymph nodes from individual naïve B10.D2 mice were harvested. Single cell suspension was stained with PE-labeled (Prozyme) SM9:L^d, IF9:L^d or HF10:L^d tetramers (NIH tetramer facility). Tetramer enrichment was performed on each sample with anti-PE magnetic beads (Miltenyi Biotec) and each sample was stained with antibodies (BD Biosciences) for flow cytometry analysis. Total numbers of CD8α^+tetramer^+ T cells per mouse were determined as before, [24].

The mark [6] stands for this setting: MHC I stabilization on RMA-S.L^d cells, representative of 3 assays.
Setting [7] is: uninfected B10.D2 mice, tetramer enrichment.

Consider “HPGSVNEFDF [HF10, decamer peptide derived from type II GRA6 C-terminus, presented by L^d MHC I]”, for which the “Frequency of peptide-specific CD8 T cells in the spleen (peptide-loaded L^d dimers)” value in assay [1] was 9.5%+/−3.7. In assay [2], the “Protection against lethal parasite challenge (in words)” value was “protects against lethal type II parasite challenge”. Moreover, the “Percentage of IFN-γ+ out of CD8+ cells after peptide restimulation” value in assay [3] was 24.7% and ~25%. For the same sequence, in assay [4] (setting [6]), the “Affinity for L^d relative to SM9 (in words)” value is “fell in the same range as the T. gondii subdominant peptide SM9”; the “Affinity for L^d, fold higher than that of IF9, QL9 and YL9” value was around 10 fold. Moreover, the “Peptide concentration stabilizing L^d surface expression, fold lower compared to HY10” value in assay [4] (RMA-S.L^d cells pulsed with serial peptide dilutions, 1 h RT and 3 h 37°C, 30-5-7 antibody, representative of 2 assays) turned out to be 1000 fold. In addition, in assay [5] (spleen and lymph nodes of uninfected B10.D2 mice, peptide:L^d tetramer enrichment, mean, pooled from 3 independent experiments), the “Number of tetramer+ cells / mouse (naïve peptide-specific CD8α+ T cells)” value was 400 cells / mouse. For the same sequence, in assay [5] (setting [7]), the “Frequency of naïve HF10-specific CD8 T cells, fold lower than IF9-specific” value is listed as around 3 fold and the “Frequency of naïve HF10-specific CD8 T cells, fold lower than SM9-specific” value is on record as “around 10 fold”.
